Usually IC50 stands for the point on the concentration scale where inhibition reaches its midpoint.

The subject of the first assay is Vcap cells. Put plainly: Dihydrotestosterone (DHT) mediated XTT cell proliferation assay for screening AR antagonists using Vcap cells. It counts as cell-based. The note with it: 0.2 nM DHT, effect reached at high conc. Put shortly: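 VCaP cells, starved 5 days in phenol red-free DMEM with 8% charcoal-stripped serum, were plated and treated on Day 4 with compound (0.1 nM-30 μM, 8 concentrations) plus 0.2 nM DHT, redosed Day 7. On Day 10 viability was read by XTT at 465 nm; IC50 from sigmoidal dose-response fit.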
Background: Formazan colour is commonly taken as a measure of viable cells.
Regarding `CNC(=O)c1ccc(N2C(=O)N(c3ccc(C#N)c(C(F)(F)F)c3)[C@@H]3CCCC[C@H]32)cn1` (racemic) [Example 53, Trans-5-(3-(4-cyano-3-(trifluoromethyl)phenyl)-2-oxooctahydro-1H-benzo[d]imidazol-1-yl)-N-methylpicolinamide (±)], the “XTT: only 65% @ high conc” value amounted to 65%.

The assay is the same for the next values; noted with them: Homo sapiens, 240 h, in the presence of 0.2 nM DHT, XTT readout on Day 10, IC50 curves from 8 concentrations.
As to `CNC(=O)c1ccc(N2C(=O)N(c3ccc(C#N)c(C(F)(F)F)c3)[C@@H]3CCCC[C@H]32)cn1` (racemic) [Example 53, Trans-5-(3-(4-cyano-3-(trifluoromethyl)phenyl)-2-oxooctahydro-1H-benzo[d]imidazol-1-yl)-N-methylpicolinamide (±)], the IC50 worked out at 165 nM.
Regarding `N#Cc1ccc(N2C(=O)N(c3ccccc3)[C@@H]3CCCC[C@H]32)cc1C(F)(F)F` (racemic) [Example 5, Trans-4-(2-oxo-3-phenyloctahydro-1H-benzo[d]imidazol-1-yl)-2-(trifluoromethyl)benzonitrile (±)], the IC50 is 1020 nM.
In the case of `CNC(=O)c1ccc(N2C(=O)N(c3ccc(C#N)c(C(F)(F)F)c3)[C@@H]3CCCC[C@H]32)cc1C` (racemic) [Example 39, Trans-4-(3-(4-cyano-3-(trifluoromethyl)phenyl)-2-oxooctahydro-1H-benzo[d]im-idazol-1-yl)-N,2-dimethylbenzamide (±)], the IC50 stood at 399 nM.
Same read-out and setting: the figure for `N#Cc1ccc(N2C(=O)N(c3ccnc(F)c3)[C@@H]3CCCC[C@H]32)cc1C(F)(F)F` (racemic) [Example 10, Trans-4-(3-(2-fluoropyridin-4-yl)-2-oxooctahydro-1H-benzo[d]imidazol-1-yl)-2-(trifluoromethyl)benzonitrile (±)] is 365 nM.
On to `CNC(=O)c1ccc(N2C(=O)N(c3ccc(C#N)c(C(F)(F)F)c3)[C@@H]3COCC[C@H]32)cc1F` (racemic) [Example 71, Trans-4-{3-[4-Cyano-3-(trifluoromethyl)phenyl]-2-oxo-octahydropyrano[3,4-d]imidazolidin-1-yl}-2-fluoro-N-methylbenzamide (±)], for which the IC50 came out at 656 nM.
On the same count and under the same terms, the figure for `Cc1c(N2C(=O)N(c3ccc(C#N)c(C(F)(F)F)c3)[C@H]3CCCC[C@@H]32)ccc(C#N)c1Cl` (racemic) [Example 42, Trans-2-chloro-4-(3-(4-cyano-3-(trifluoromethyl)phenyl)-2-oxooctahydro-1H-benzo[d]imidazol-1-yl)-3-methylbenzonitrile (±)] is 168 nM; for `N#Cc1ccc(N2C(=O)N(c3ccc(C(=O)NOCC4CC4)c(F)c3)[C@@H]3CCCC[C@H]32)cc1C(F)(F)F` (racemic) [Example 19, Trans-4-(3-(4-cyano-3-(trifluoromethyl)phenyl)-2-oxooctahydro-1H-benzo[d]im-idazol-1-yl)-N-(cyclopropylmethoxy)-2-fluorobenzamide (±)] it is 233 nM.
Turning to `N#Cc1ccc(N2C(=O)N(c3ccc(C(=O)N[C@@H]4CCOC4)c(F)c3)[C@H]3CCCC[C@@H]32)cc1C(F)(F)F` [Example 36], the IC50 was 203 nM.
On the same count and under the same terms, the figure for `CNC(=O)c1ccc(N2C(=O)N(c3ccc(C#N)c(C(F)(F)F)c3)[C@@H]3CCOC[C@H]32)cc1F` (racemic) [Example 73, Trans-4-(1-(4-Cyano-3-(trifluoromethyl)phenyl)-2-oxohexahydropyrano[3,4-d]imidazol-3(2H)-yl)-2-fluoro-N-methylbenzamide (±)] is 2550 nM.
Regarding `CC(CO)ONC(=O)c1ccc(N2C(=O)N(c3ccc(C#N)c(C(F)(F)F)c3)[C@@H]3CCCC[C@H]32)cc1F` (mixture of isomers) [Example 24, Trans-4-(3-(4-cyano-3-(trifluoromethyl)phenyl)-2-oxooctahydro-1H-benzo[c]im-idazol-1-yl)-2-fluoro-N-((1-hydroxypropan-2-yl)oxy)benzamide (±)], the IC50 stood at 1520 nM.
As for `CNC(=O)c1ccc(N2C(=O)N(c3ccc(C#N)c(C(F)(F)F)c3)[C@H]3CCCC[C@@H]32)cn1` [Example 54, 5-((3aS,7aS)-3-(4-cyano-3-(trifluoromethyl)phenyl)-2-oxooctahydro-1H-benzo[d]imidazol-1-yl)-N-methylpicolinamide], the IC50 is 245 nM.
Regarding `Cc1cc(N2C(=O)N(c3ccc(C#N)c(C(F)(F)F)c3)[C@@H]3COCC[C@H]32)ccn1` (racemic) [Example 72, Trans-4-(1-(2-methylpyridin-4-yl)-2-oxohexahydropyrano[3,4-d]imidazol-3(2H)-yl)-2-(trifluoromethyl)benzonitrile (±)], the half-maximal inhibitory concentration (IC50) was over 10000 nM.
With `N#Cc1ccc(N2C(=O)N(c3ccc(C(=O)NCCO)c(F)c3)[C@H]3CCCC[C@@H]32)cc1C(F)(F)F` [Example 33, 4-((3aS,7aS)-3-(4-cyano-3-(trifluoromethyl)phenyl)-2-oxooctahydro-1H-benzo[d]imidazol-1-yl)-2-fluoro-N-(2-hydroxyethyl)benzamide], the IC50 is 43.6 nM.
Consider `N#Cc1ccc(N2C(=O)N(c3ccnc(C(N)=O)c3)[C@H]3CCCC[C@@H]32)cc1C(F)(F)F` [Example 57, 4-((3aS,7aS)-3-(4-cyano-3-(trifluoromethyl)phenyl)-2-oxooctahydro-1H-benzo[d]imidazol-1-yl)picolinamide], for which the half-maximal inhibitory concentration (IC50) amounted to 265 nM.
Regarding `N#Cc1ccc(N2C(=O)N(c3cc(Cl)cc(Cl)c3)[C@@H]3CCCC[C@H]32)cc1C(F)(F)F` (racemic) [Example 43, Trans-4-(3-(3,5-dichlorophenyl)-2-oxooctahydro-1H-benzo[d]imidazol-1-yl)-2-(trifluoromethyl)benzonitrile (±)], the IC50 came out at 339 nM.
Still for that read-out and setting: the figure for `N#Cc1ccc(N2C(=O)N(c3ccc(C(=O)NOCC4CCC4)c(F)c3)[C@@H]3CCCC[C@H]32)cc1C(F)(F)F` (racemic) [Example 21, Trans-4-(3-(4-cyano-3-(trifluoromethyl)phenyl)-2-oxooctahydro-1H-benzo[c]im-idazol-1-yl)-N-(cyclobutylmethoxy)-2-fluorobenzamide (±)] is 255 nM; for `N#Cc1ccc(N2C(=O)N(c3ccnc(C(F)(F)F)c3)[C@@H]3CCCC[C@H]32)cc1C(F)(F)F` (racemic) [Example 11, Trans-4-(2-oxo-3-(2-(trifluoromethyl)pyridin-4-yl)octahydro-1H-benzo[d]imidazol-1-yl)-2-(trifluoromethyl)benzonitrile (±)] it is 1240 nM; for `CNC(=O)c1ccc(N2C(=O)N(c3ccc(C#N)c(C(F)(F)F)c3)[C@@H]3CC=CC[C@H]32)cc1F` (racemic) [Example 83, Trans-4-(3-(4-cyano-3-(trifluoromethyl)phenyl)-2-oxo-2,3,3a,4,7,7a-hexahydro-1H-benzo[c]imidazol-1-yl)-2-fluoro-N-methylbenzamide (±)] it is 148 nM.
As to `CNC(=O)c1ccc(N2C(=O)N(c3ccc(C#N)c(C(F)(F)F)c3)[C@@H]3CCCC[C@H]32)s1` (racemic) [Example 40, Trans-5-(3-(4-cyano-3-(trifluoromethyl)phenyl)-2-oxooctahydro-1H-benzo[d]imidazol-1-yl)-N-methylthiophene-2-carboxamide (±)], the IC50 is over 10000 nM.

The assay is the same for the next values; noted with them: in the presence of 0.2 nM DHT, XTT readout on Day 10, IC50 curves from 8 concentrations.
Take `N#Cc1ccc(N2C(=O)N(c3ccnc(F)c3)[C@@H]3CCCC[C@H]32)cc1C(F)(F)F` (relative stereo) [Example 10a, Trans-4-(3-(2-fluoropyridin-4-yl)-2-oxooctahydro-1H-benzo[d]imidazol-1-yl)-2-(trifluoromethyl)benzonitrile (+)]: the IC50 stood at 2550 nM.
The same measure, in the same setting: next, `CC(COC(C)(C)C)ONC(=O)c1ccc(N2C(=O)N(c3ccc(C#N)c(C(F)(F)F)c3)[C@@H]3CCCC[C@H]32)cc1F` (mixture of isomers) [Example 23, Trans-N-((1-(tert-butoxy)propan-2-yl)oxy)-4-(3-(4-cyano-3-(trifluoromethyl)phenyl)-2-oxooctahydro-1H-benzo[d]imidazol-1-yl)-2-fluorobenzamide (±)]: over 10000 nM.
